This note sets out measurements from paper PMC11249626, “Fluorophore-Labeled Pyrrolones Targeting the Intracellular Allosteric Binding Site of the Chemokine Receptor CCR1” (ACS Pharmacology & Translational Science, 2024).

Structures are written as SMILES. Where two headings read alike, the source gives them in different places.

The target in one assay is T1, CCR1 (Homo sapiens, UniProt P32246).
T1 sequence (P32246 1-355): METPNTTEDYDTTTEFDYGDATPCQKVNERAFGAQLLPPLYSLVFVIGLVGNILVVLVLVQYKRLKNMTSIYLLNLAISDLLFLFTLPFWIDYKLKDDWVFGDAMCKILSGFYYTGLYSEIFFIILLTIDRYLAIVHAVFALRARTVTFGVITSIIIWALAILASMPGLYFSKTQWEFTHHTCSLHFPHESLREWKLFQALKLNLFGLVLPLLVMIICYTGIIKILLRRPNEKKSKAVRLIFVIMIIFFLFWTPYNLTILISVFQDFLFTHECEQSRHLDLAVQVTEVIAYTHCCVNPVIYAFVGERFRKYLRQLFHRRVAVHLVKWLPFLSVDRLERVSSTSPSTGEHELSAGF
In words: Live cell NanoBRET binding assay, HEK293T cells expressing CCR1_Nluc. On the set-up: Promega pNLF1-C (Nluc) #CCR010TN00; host or cells: HEK293T, transient (PEI). Conditions: for Ki: 12 (1000 nM), live HEK293T cells.

Another assay deals with T2, CCR2 (Homo sapiens, UniProt P41597).
T2 construct: host or cells: HEK293T, transient
T2 sequence (P41597 1-360 isoform P41597-2): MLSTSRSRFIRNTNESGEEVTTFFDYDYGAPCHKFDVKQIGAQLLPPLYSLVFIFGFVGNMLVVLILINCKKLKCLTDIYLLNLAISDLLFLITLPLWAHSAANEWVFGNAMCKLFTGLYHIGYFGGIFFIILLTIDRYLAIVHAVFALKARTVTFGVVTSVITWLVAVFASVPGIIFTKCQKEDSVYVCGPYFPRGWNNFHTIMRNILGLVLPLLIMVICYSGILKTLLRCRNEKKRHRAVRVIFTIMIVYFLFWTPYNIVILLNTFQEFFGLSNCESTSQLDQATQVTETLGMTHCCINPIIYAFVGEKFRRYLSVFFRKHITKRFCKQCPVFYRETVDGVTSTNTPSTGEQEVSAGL
In words: NanoBRET competition binding assay for CCR2 based on 7, as previously reported. As to conditions: for inhibition at 20 µM: compound at 20 μM. The source says:
With 6 (Figure 1), a first lead structure for intracellular CCR1 inhibition that features an approximately 20-fold CCR1 over CCR2 selectivity was previously discovered by Ortiz Zacarías et al.([33]) In order to discover new chemotypes for selective CCR1 over CCR2 inhibition, we aimed to apply our novel NanoBRET competition binding assay for CCR1 in combination with our recently published CCR2 competition binding assay based on 7.[47] In our first attempt, we screened a small in-house library enriched with intracellular GPCR ligands and structural analogues thereof. […] Additionally, we tested 23 for binding to the IABS of CCR9 and CXCR2 using our recently reported NanoBRET-based assay platform (Figure 6C).[44],[45] In the course of these studies, we detected no binding of 23 to CCR9 and CXCR2 up to a concentration of 20 μM. Since cell lineage-dependent effects have been observed for CCR1 antagonists,[59] we studied the CCR1 over CCR2 selectivity of 23 by using a previously reported radioligand binding assay with membrane preparations from osteosarcoma (U2OS) cells stably expressing human CCR1 or CCR2.[33] […] In agreement with these previous reports,[33] we observed a reduction in CCR1 over CCR2 selectivity when moving from membrane-based binding assays to cell-based functional assays. […] To investigate a potential signaling bias of 23, we tested the compound by means of a NanoBiT miniGi recruitment assay.[60] […] Thus, this indicated no strong signaling bias of 23 (Figures S9E and S10C). To elucidate the SAR of this new scaffold for selective CCR1 over CCR2 inhibition, we synthesized several analogues of 23 (24–40) and tested them by means of our NanoBRET competition binding assays (Schemes S2 and S3, Table 1, Figures 6F and S11). First, we aimed to examine the impact of the stereochemistry of 23 on CCR1 affinity. As for the structurally related pyrrolone 4, large differences in CCR2 affinity between the eutomer 4-[R] and the distomer 4-[S] were described.[61] […] Furthermore, we identified the 4-hydroxyphenethyl group at position 1 of the pyrrolone scaffold as highly important for CCR1 affinity and selectivity. Its presence seems to block CCR2 binding, also when combined with the structural features of the high-affinity CCR2 ligand 5, as exemplified by 24. Especially the 4-hydroxy group at this moiety is essential for CCR1 binding (see 25 and 26). […] In position 5 of the pyrrolone, several aromatic and aliphatic substituents were tolerated (see 31–35).

In the case of `O=C(C1=C(O)C(=O)N(CCc2ccc(O)cc2)C1c1ccc(F)cc1)c1ccccc1` (racemic) [compound 23], the Ki at CCR1 (read-out: Ki, live cells) is 235 nM; at CCR1 (read-out: pKi ± SEM, live cells (converted)) it was 229 nM. For the same compound, the inhibition at 20 µM on CCR2 (read-out: % inh. of tracer binding, CCR2) is -3%; on CCR2 (read-out: CCR2 inhibition class (n.i.)), below 10%.

As for `CC(=O)C1=C(O)C(=O)N(c2ccc(Br)cc2F)C1C1CCCCC1` (stereo not shown) [compound 5, reference compound], the Ki at CCR1 (read-out: Ki, live cells) is 24.2 nM; on CCR2 (NanoBRET competition, tracer 7), 17.9 nM.

Regarding `CN(C)c1ccc2c(-c3cc(C(=O)NCCOCCOCc4cn(CCCC(=O)C5=C(O)C(=O)N(c6ccc(Br)cc6F)C5C5CCCCC5)nn4)ccc3C(=O)[O-])c3ccc(=[N+](C)C)cc-3oc2c1` (stereo not shown) [compound 12], at CCR1 (live HEK293T cells expressing CCR1_Nluc), binding was put at a Kd of 505 ± 93 nM.
